Results from patent US20100267561A1, “HERBICIDAL PYRIDAZINONE DERIVATIVES” (priority 2007, published 2010).

Legend:
Assay in all cases: Test B pre-/postemergence plant response
Type in all cases: in vivo
wild oat (Avena fatua) = test system: wild oat (Avena fatua)
How it was run: (§1)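 Seeds were sown and sprayed preemergence, while plants at 2 to 18 cm (1- to 4-leaf stage) got postemergence sprays. Compounds were formulated in a non-phytotoxic solvent mixture with surfactant. After 13 to 15 days in a greenhouse, injury was rated visually against untreated controls, 0 (no effect) to 100 (complete control).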

[1] = test system: velvetleaf (Abutilon theophrasti)
How it was run: as §1

[2] = test system: cocklebur (Xanthium strumarium); details: for Cocklebur plant response rating: 8 g ai/ha
How it was run: as §1

[3] = test system: lambsquarters (Chenopodium album)
How it was run: as §1

[4] = test system: large crabgrass (Digitaria sanguinalis)
How it was run: as §1

[5] = test system: woolly cupgrass (Eriochloa villosa)
How it was run: as §1

[6] = test system: yellow nutsedge (Cyperus esculentus)
How it was run: as §1

[7] = test system: blackgrass (Alopecurus myosuroides); details: for Blackgrass plant response rating: 8 g ai/ha
How it was run: as §1

corn (Zea mays) = test system: corn (Zea mays)
How it was run: as §1

[8] = test system: catchweed bedstraw (Galium aparine); details: Preemergence; for Galium plant response rating: scale 0 to 100
How it was run: as §1

[9] = test system: pigweed (Amaranthus retroflexus)
How it was run: as §1

kochia (Kochia scoparia) = details: for Kochia plant response rating: postemergence, 0-100 scale; for Plant response rating, Kochia: Postemergence
How it was run: as §1

[10] = test system: common ragweed (Ambrosia elation)
How it was run: as §1

[11] = test system: green foxtail (Setaria viridis)
How it was run: as §1

[12] = 8 g ai/ha, postemergence, 0-100 scale
[13] = 16 g ai/ha, postemergence, 0-100 scale
[14] = Postemergence, 31 g ai/ha, scale 0 to 100
[15] = Postemergence, 62 g ai/ha, scale 0 to 100, 0 no effect, 100 complete control
[16] = Preemergence, 31 g ai/ha, scale 0 to 100 (0 no effect, 100 complete control)
[17] = Preemergence, 62 g ai/ha, 0 to 100 scale, 0 no effect, 100 complete control
[18] = Preemergence, 8 g ai/ha, scale 0 to 100
[19] = Preemergence, 16 g ai/ha, scale 0 to 100
[20] = Postemergence, 16 g ai/ha, scale 0 to 100
[21] = Preemergence, 16 g ai/ha, scale 0 to 100 (0 no effect, 100 complete control)

CCc1cc(-c2ccc(Br)cc2)nn1-c1c(O)c(C)nn(C)c1=O [Compound 74]
Oat, Wild plant response rating (wild oat (Avena fatua); [12]): 98 | Oat, Wild plant response rating (wild oat (Avena fatua); [13]): 98 | Plant response rating, Oat, Wild (wild oat (Avena fatua); [14]): 100 | Plant response rating, Oat, Wild (wild oat (Avena fatua); [15]): 100 | Plant response rating, Oat, Wild (wild oat (Avena fatua); [16]): 70 | Plant response rating, Oat, Wild (wild oat (Avena fatua); [17]): 80 | Oat, Wild plant response rating (wild oat (Avena fatua); [18]): 50 | Oat, Wild plant response rating (wild oat (Avena fatua); [19]): 70 | Velvetleaf plant response rating [1, 12]: 0 | Velvetleaf plant response rating [1, 13]: 0 | Plant response rating, Velvetleaf [1, 14]: 0 | Plant response rating, Velvetleaf [1, 15]: 0 | Plant response rating, Velvetleaf [1, 16]: 0 | Plant response rating, Velvetleaf [1, 17]: 0 | Velvetleaf plant response rating [1, 18]: 0 | Velvetleaf plant response rating [1, 19]: 0 | Cocklebur plant response rating ([2]; postemergence, 0-100 scale): 0 | Plant response rating, Cocklebur [2, 20]: 0 | Plant response rating, Cocklebur [2, 14]: 0 | Plant response rating, Cocklebur [2, 15]: 0 | Plant response rating, Cocklebur [2, 21]: 0 | Plant response rating, Cocklebur [2, 16]: 0 | Plant response rating, Cocklebur [2, 17]: 0 | Cocklebur plant response rating ([2]; Preemergence, scale 0 to 100): 0 | Lambsquarters plant response rating [3, 12]: 0 | Lambsquarters plant response rating [3, 13]: 0 | Plant response rating, Lambsquarters [3, 14]: 0 | Plant response rating, Lambsquarters [3, 15]: 0 | Plant response rating, Lambsquarters [3, 16]: 0 | Plant response rating, Lambsquarters [3, 17]: 20 | Lambsquarters plant response rating [3, 18]: 0 | Lambsquarters plant response rating [3, 19]: 0 | Crabgrass, Large plant response rating [4, 12]: 80 | Plant response rating, Crabgrass, Large [4, 20]: 90 | Plant response rating, Crabgrass, Large [4, 14]: 98 | Plant response rating, Crabgrass, Large [4, 15]: 100 | Plant response rating, Crabgrass, Large [4, 16]: 100 | Plant response rating, Crabgrass, Large [4, 17]: 100 | Crabgrass, Large plant response rating [4, 18]: 65 | Crabgrass, Large plant response rating [4, 19]: 95 | Cupgrass, Woolly plant response rating [5, 12]: 85 | Plant response rating, Cupgrass, Woolly [5, 20]: 90 | Plant response rating, Cupgrass, Woolly [5, 14]: 90 | Plant response rating, Cupgrass, Woolly [5, 15]: 98 | Plant response rating, Cupgrass, Woolly [5, 16]: 98 | Plant response rating, Cupgrass, Woolly [5, 17]: 100 | Cupgrass, Woolly plant response rating [5, 18]: 65 | Cupgrass, Woolly plant response rating [5, 19]: 95 | Nutsedge, Yellow plant response rating [6, 12]: 0 | Nutsedge, Yellow plant response rating [6, 13]: 0 | Plant response rating, Nutsedge, Yellow [6, 14]: 0 | Plant response rating, Nutsedge, Yellow [6, 15]: 0 | Plant response rating, Nutsedge, Yellow [6, 16]: 0 | Plant response rating, Nutsedge, Yellow [6, 17]: 0 | Nutsedge, Yellow plant response rating [6, 18]: 0 | Nutsedge, Yellow plant response rating [6, 19]: 0 | Blackgrass plant response rating ([7]; postemergence, 0-100 scale): 90 | Plant response rating, Blackgrass [7, 20]: 95 | Plant response rating, Blackgrass [7, 14]: 98 | Plant response rating, Blackgrass [7, 15]: 100 | Plant response rating, Blackgrass [7, 21]: 100 | Plant response rating, Blackgrass [7, 16]: 100 | Plant response rating, Blackgrass [7, 17]: 100 | Blackgrass plant response rating ([7]; Preemergence, scale 0 to 100): 85 | Corn plant response rating (corn (Zea mays); [12]): 98 | Plant response rating, Corn (corn (Zea mays); [20]): 100 | Plant response rating, Corn (corn (Zea mays); [14]): 100 | Plant response rating, Corn (corn (Zea mays); [15]): 100 | Plant response rating, Corn (corn (Zea mays); [16]): 90 | Plant response rating, Corn (corn (Zea mays); [17]): 98 | Corn plant response rating (corn (Zea mays); [18]): 75 | Corn plant response rating (corn (Zea mays); [19]): 80 | Plant response rating, Galium ([8]; 31 g ai/ha, scale 0 to 100 (0 no effect, 100 complete control)): 0 | Plant response rating, Galium ([8]; 62 g ai/ha, 0 to 100 scale, 0 no effect, 100 complete control): 0 | Galium plant response rating ([8]; 8 g ai/ha): 0 | Galium plant response rating ([8]; 16 g ai/ha): 0 | Pigweed plant response rating [9, 12]: 0 | Pigweed plant response rating [9, 13]: 0 | Plant response rating, Pigweed [9, 14]: 0 | Plant response rating, Pigweed [9, 15]: 0 | Plant response rating, Pigweed [9, 16]: 0 | Plant response rating, Pigweed [9, 17]: 20 | Pigweed plant response rating [9, 18]: 0 | Pigweed plant response rating [9, 19]: 0 | Kochia plant response rating (kochia (Kochia scoparia); 8 g ai/ha): 0 | Kochia plant response rating (kochia (Kochia scoparia); 16 g ai/ha): 0 | Plant response rating, Kochia (kochia (Kochia scoparia); 31 g ai/ha, scale 0 to 100): 0 | Plant response rating, Kochia (kochia (Kochia scoparia); 62 g ai/ha, scale 0 to 100, 0 no effect, 100 complete control): 0 | Ragweed plant response rating [10, 12]: 0 | Ragweed plant response rating [10, 13]: 0 | Plant response rating, Ragweed [10, 14]: 0 | Plant response rating, Ragweed [10, 15]: 0 | Plant response rating, Ragweed [10, 16]: 0 | Plant response rating, Ragweed [10, 17]: 0 | Ragweed plant response rating [10, 18]: 0 | Ragweed plant response rating [10, 19]: 0 | Foxtail, Green plant response rating [11, 12]: 85 | Plant response rating, Foxtail, Green [11, 20]: 95 | Plant response rating, Foxtail, Green [11, 14]: 98 | Plant response rating, Foxtail, Green [11, 15]: 100 | Plant response rating, Foxtail, Green [11, 16]: 100 | Plant response rating, Foxtail, Green [11, 17]: 100 | Foxtail, Green plant response rating [11, 18]: 100 | Foxtail, Green plant response rating [11, 19]: 100
